Assay results as given in US7713991B2, “Imidazo[[1, 5-A] pyridine derivatives and methods for treating aldosterone mediated diseases” (Novartis AG, priority 2003, dated 2010).

How the values were obtained:
aldosterone synthase = aldosterone synthase (Rattus norvegicus, UniProt P30099); assay: aldosterone synthase inhibitory activity in vitro; assay type: biochemical; conditions: rat adrenal glomerulosa homogenate, corticosterone substrate; read-out: inhibits the aldosterone synthase activity, IC50 value
Sequence of aldosterone synthase (P30099 35-510): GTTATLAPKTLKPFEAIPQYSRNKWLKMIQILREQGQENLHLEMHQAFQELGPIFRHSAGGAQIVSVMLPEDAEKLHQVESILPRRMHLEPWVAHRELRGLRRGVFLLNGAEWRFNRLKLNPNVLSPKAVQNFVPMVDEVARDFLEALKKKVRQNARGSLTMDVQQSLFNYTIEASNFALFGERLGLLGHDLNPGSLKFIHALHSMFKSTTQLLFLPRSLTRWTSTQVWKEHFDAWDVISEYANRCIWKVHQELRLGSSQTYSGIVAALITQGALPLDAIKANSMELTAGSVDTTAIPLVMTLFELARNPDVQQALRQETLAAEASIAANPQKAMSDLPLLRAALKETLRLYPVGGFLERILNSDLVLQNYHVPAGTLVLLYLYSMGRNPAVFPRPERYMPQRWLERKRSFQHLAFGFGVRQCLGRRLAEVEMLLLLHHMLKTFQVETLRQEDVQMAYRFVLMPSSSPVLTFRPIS
From the text: The aldosterone synthase inhibitory activity in vitro may be determined as follows:
Adult male Sprague-Dawley rats weighing 125-150 g are obtained from Harlan Farms. All animals are caged in pairs and maintained under standard conditions of light and temperature. The animals are placed on a sodium depleted diet (0.01-0.02%) from Harland Teklad, Madison Wis. (Cat. No. TD90228) and maintained on normal drinking water ad libitum. The animals are maintained on this diet for two to four weeks prior to harvesting the adrenal glomerulosa cells. The rats are killed by CO2 inhalation, and the adrenals are immediately removed and placed in the same ice-cold buffer used during homogenization and assay of the enzyme preparation. The adrenals are de-capsulated to obtain the glomerulosa tissue. The tissue is homogenized in a glass homogenizer containing Tris assay buffer (8.5 mM MgCl2, 2.7 mM CaCl2, 3.13 mM KCl, 7.59 mM NaCl, 0.1% TEA and 50 mM Tris HCl adjusted to pH 7.4). […] The plates are scanned for radioactivity with a Bioscan System 200 Imaging Scanner (Bioscan, Ish. D.C.). The two products of the aldosterone synthase, 18—OH-corticosterone and aldosterone are scraped and counted in a liquid scintillation counter (Beckman LS6000TA, Beckman Instr., Palo Alto, Calif.).
The slope (Hill Coefficient) and x intercept (IC50) are determined by linear regression of the experimental data.

Row | melting point [°C] | IC50 (aldosterone synthase) [µM] | SMILES
1 | 240 to 242 | – | Cl.c1ccc(-c2ccc(-c3cccc4cncn34)cc2)cc1
2 | 200 to 201 | – | Cl.c1ccc(-c2ccccc2-c2cccc3cncn23)cc1
3 | 96 to 98 | – | Cl.c1ccc2c(-c3cccc4cncn34)coc2c1
4 | 149 to 152 | – | Cl.O=C(OCc1ccccc1)N1CC=C(c2cccc3cncn23)CC1
5 | 222 to 223 | ~0.05 | Cl.c1ccc2c(-c3cccc4cncn34)cccc2c1 [Example 1, 5-Naphthalen-1-yl-imidazo[1,5-a]pyridine hydrochloride]
